The text below walks through data of patent US20100216876A1, “ANTIDIARRHETIC COMPOSITION, PRODUCT CONTAINING THE SAME AND METHOD OF PREVENTING DIAHHREA” (priority 2007, published 2010).

The test relates to intestinal Cl− secretion. Briefly: Short-circuit current (Isc) measurement of cecum mucosa sample in Ussing chamber after forskolin. It counts as cell-based, mouse. As for the experimental part:
A sample of large-intestinal mucosa was prepared in the following manner. A mouse was killed by cervical vertebra dislocation. After abdominal incision, the cecum was excised by cutting the boundary parts of the cecum with the small intestine and the large intestine. The cecum was cut open with scissors into a sheet. In order to completely remove the contents of the cecum, the cecum was pinched with tweezers and washed with a buffered solution. Then, a substitution fluid was placed in a petri dish covered with rubber, and the cecum was attached thereon with the serosa side up. Under conditions in which the buffered solution-in the petri dish was always aerated with 95% O2/5% CO2, the muscle layer was peeled using tweezers, and a sample composed of mucosa and submucosa was produced. The sample was divided into four pieces for the experiment.
Electrical analysis was carried out using this sample. FIG. 1 is a diagram showing an embodiment of measurement of short-circuit current (Isc) in Ussing chamber. The mucosa sample was placed between two Ussing-type chambers (window area: 0.2 cm^2) containing 5 ml of buffered solution. For the measurement of the electrical potential difference, a pair of calomel electrodes was connected to each chamber through a 1MKCl/2% agar salt bridge. For passing current, Ag/AgGl electrodes connected through a 1MNaCl/2% agar salt bridge were mounted. These electrodes were connected to a voltage clamp apparatus, and the short-circuit current (Isc) was measured. As for Isc, the current flowing from the mucosa side to the serosa side was positive.
The solutions to be administered were prepared as stock solutions so that the concentration of each solution was 1,000 times higher than the desired final concentration.

The mark [1] stands for this setting: 20 μM on the serosa side after forskolin.
Setting [2] is: 50 μM on the serosa side after forskolin.

The structures appear in SMILES notation.

Regarding `CC(C)[C@@H]1CC[C@@H](C)C[C@H]1OCCCO`, the Isc decrease entry under setting [1] is reported as “about 50 μA/cm^2” and the Isc decrease result under setting [2] is given as “about 70 μA/cm^2”.
As to `CC(C)[C@@H]1CC[C@@H](C)C[C@H]1OCCO` [2-(l-menthoxy)ethanol], the Isc decrease entry is, setting by setting: under setting [1], “about 10 μA/cm^2”; (150 μM on the serosa side after forskolin) “about 70 μA/cm^2”.
For the molecule `CC(C)[C@@H]1CC[C@@H](C)C[C@H]1OCC(C)(O)CO` (stereo partly drawn) [2-methyl-3-(l-menthoxy)propane-1,2-diol], under setting [1], the Isc decrease entry is reported as “about 100 μA/cm^2” and the “action on Isc compared with menthol” value is given as “almost equal to the administration of 500 μM of menthol”. Besides, under “serosa side after forskolin”, the “dose dependence of the Isc inhibitory effect” value is given as “dose dependence was observed at doses up to 50 μM”.
For the molecule `CC1CCC(C(C)C)C(OCC(O)CO)C1` (stereo not drawn) [3-(l-menthoxy)propane-1,2-diol], the Isc decrease entry is reported as “about 50 μA/cm^2” under setting [1] and “about 70 μA/cm^2” under setting [2].
